The source of these data is patent US12371454B2, “Cyclic peptide compound having Kras inhibitory action” (priority 2019, dated 2025).

The structures appear in SMILES notation. Starred links: 1 amine or outer side, 2 acyl side, 3 side chain; linkers in the order of their positions; H or OH if unused. Positions of bridges follow the written chain, without caps; N, C: chain ends. Non-standard residues stand in square brackets, D forms with d. Residues, ends and D or L forms follow the SMILES beside them. *: point of attachment. hPhe(3-Cl-4-CF3) = N[C@@H](CCc1ccc(C(F)(F)F)c(Cl)c1)C(=O)O; X38 = CN([C@@H](Cc1cccc(OC(F)(F)F)c1)C(=O)[*:2])[*:1]; NMePhe(4-CF3) = CN[C@@H](Cc1ccc(C(F)(F)F)cc1)C(=O)O; NMePhe(3,4-F2) = CN[C@@H](Cc1ccc(F)c(F)c1)C(=O)O; NMePhe(4-Me) = CN[C@@H](Cc1ccc(C)cc1)C(=O)O; NMePhe(3-I) = CN[C@@H](Cc1cccc(I)c1)C(=O)O; NMePhe(4-F) = CN[C@@H](Cc1ccc(F)cc1)C(=O)O; NMeY = CN[C@@H](Cc1ccc(O)cc1)C(=O)O; NMeI = CC[C@H](C)[C@H](NC)C(=O)O; dNMeF = CN[C@H](Cc1ccccc1)C(=O)O; NMeD = CN[C@@H](CC(=O)O)C(=O)O; NMeL = CN[C@@H](CC(C)C)C(=O)O; NMeA = CN[C@@H](C)C(=O)O; Piperidide = C1CCN(*)CC1; Ac5c = NC1(C(=O)O)CCCC1; Aze = O=C(O)[C@@H]1CCN1; Sar = CNCC(=O)O

In the assay the target is T1, Kras and SOS1 (biotin-tagged human Kras loaded with GDP, His-tagged human SOS1) (Homo sapiens, UniProt P01116, G12D).
T1 construct: made in house; host or cells: E. coli (stated for Kras only)
T1 sequence (P01116 1-188 isoform P01116-2 G12D): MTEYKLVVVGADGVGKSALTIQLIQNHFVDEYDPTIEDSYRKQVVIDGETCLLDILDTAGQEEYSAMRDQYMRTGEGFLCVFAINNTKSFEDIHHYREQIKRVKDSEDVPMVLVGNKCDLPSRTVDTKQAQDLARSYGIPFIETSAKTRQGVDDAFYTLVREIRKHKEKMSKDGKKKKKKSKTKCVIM
In words: Protein-protein interaction inhibition between Kras and SOS1 (KrasGl2D-SOS PPI) using AlphaScreen. It is filed as binding. As to conditions: AlphaScreen; biotin-tagged human Kras loaded with GDP, His-tagged human SOS1; read-out: KRAS G12D-SOS PPI IC50. An outline of the steps:
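Kras was produced in E. coli, purified, then loaded with GDP. It was paired via streptavidin acceptor beads with His-SOS1 held on nickel donor beads, and proximity signal at 520-620 nm was read after 680 nm illumination.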
`CC[C@H](C)[C@@H]1NC(=O)[C@H](CC(C)C)N(C)C(=O)C[C@@H](C(=O)N(C)C)N(C)C(=O)[C@H]([C@@H](C)CC)N(C)C(=O)C2(CCCC2)NC(=O)[C@H](Cc2ccc(OC)cc2)N(C)C(=O)[C@H](CCc2ccc(C(F)(F)F)c(Cl)c2)NC(=O)CN(C)C(=O)[C@H](Cc2ccc(C)cc2)N(C)C(=O)[C@@H]2CCN2C(=O)[C@H](C)N(C)C1=O` [Compound 1935] ([NMeL]I[NMeA][Aze][NMePhe(4-Me)][Sar][hPhe(3-Cl-4-CF3)][NMeY](Me)[Ac5c][NMeI][NMeD]-NMe2; lactam N-11): the IC50 stood at 0.011 µM.

Regarding `CC[C@H](C)[C@@H]1NC(=O)[C@H](C)N(C)C(=O)C[C@@H](C(=O)N2CCCCC2)N(C)C(=O)[C@H]([C@@H](C)CC)N(C)C(=O)C2(CCCC2)NC(=O)[C@@H](Cc2ccccc2)N(C)C(=O)[C@H](CCc2ccc(C(F)(F)F)c(Cl)c2)NC(=O)CN(C)C(=O)[C@H](Cc2ccc(C(F)(F)F)cc2)N(C)C(=O)[C@@H]2CCN2C(=O)[C@H](C)N(C)C1=O` [Compound 1942] ([NMeA]I[NMeA][Aze][NMePhe(4-CF3)][Sar][hPhe(3-Cl-4-CF3)][dNMeF][Ac5c][NMeI][NMeD]-Piperidide; lactam N-11), the IC50 was 0.29 µM.

Take `CC[C@H](C)[C@@H]1NC(=O)[C@H](CC(C)C)N(C)C(=O)C[C@@H](C(=O)N(C)C)N(C)C(=O)[C@H]([C@@H](C)CC)N(C)C(=O)C2(CCCC2)NC(=O)[C@H](Cc2ccc(F)c(F)c2)N(C)C(=O)[C@H](CCc2ccc(C(F)(F)F)c(Cl)c2)NC(=O)CN(C)C(=O)[C@H](Cc2ccc(C)cc2)N(C)C(=O)[C@@H]2CCN2C(=O)[C@H](C)N(C)C1=O` [Compound 1943] ([NMeL]I[NMeA][Aze][NMePhe(4-Me)][Sar][hPhe(3-Cl-4-CF3)][NMePhe(3,4-F2)][Ac5c][NMeI][NMeD]-NMe2; lactam N-11): the IC50 worked out at 0.008 µM.

As to `CC[C@H](C)[C@@H]1NC(=O)[C@H](C)N(C)C(=O)C[C@@H](C(=O)N(C)C)N(C)C(=O)[C@H]([C@@H](C)CC)N(C)C(=O)C2(CCCC2)NC(=O)[C@H](Cc2cccc(I)c2)N(C)C(=O)[C@H](CCc2ccc(C(F)(F)F)c(Cl)c2)NC(=O)CN(C)C(=O)[C@H](Cc2ccc(C)cc2)N(C)C(=O)[C@@H]2CCN2C(=O)[C@H](C)N(C)C1=O` [Compound 1944] ([NMeA]I[NMeA][Aze][NMePhe(4-Me)][Sar][hPhe(3-Cl-4-CF3)][NMePhe(3-I)][Ac5c][NMeI][NMeD]-NMe2; lactam N-11), the IC50 stood at 0.045 µM.

As to `CC[C@H](C)[C@@H]1NC(=O)[C@H](C)N(C)C(=O)C[C@@H](C(=O)N(C)C)N(C)C(=O)[C@H]([C@@H](C)CC)N(C)C(=O)C2(CCCC2)NC(=O)[C@H](Cc2cccc(OC(F)(F)F)c2)N(C)C(=O)[C@H](CCc2ccc(C(F)(F)F)c(Cl)c2)NC(=O)CN(C)C(=O)[C@H](Cc2ccc(C)cc2)N(C)C(=O)[C@@H]2CCN2C(=O)[C@H](C)N(C)C1=O` [Compound 1945] ([NMeA]I[NMeA][Aze][NMePhe(4-Me)][Sar][hPhe(3-Cl-4-CF3)][X38][Ac5c][NMeI][NMeD]-NMe2; lactam N-11), the IC50 amounted to 0.018 µM.

Consider `CC[C@H](C)[C@@H]1NC(=O)[C@H](C)N(C)C(=O)C[C@@H](C(=O)N(C)C)N(C)C(=O)[C@H]([C@@H](C)CC)N(C)C(=O)C2(CCCC2)NC(=O)[C@H](Cc2ccc(F)cc2)N(C)C(=O)[C@H](CCc2ccc(C(F)(F)F)c(Cl)c2)NC(=O)CN(C)C(=O)[C@H](Cc2ccc(C(F)(F)F)cc2)N(C)C(=O)[C@@H]2CCN2C(=O)[C@H](C)N(C)C1=O` [Compound 1951] ([NMeA]I[NMeA][Aze][NMePhe(4-CF3)][Sar][hPhe(3-Cl-4-CF3)][NMePhe(4-F)][Ac5c][NMeI][NMeD]-NMe2; lactam N-11), for which the IC50 amounted to 0.0099 µM.
